# Laboratory results from patent publication US20240277658A1, “NLRP3 ACTIVATORS FOR USE IN THE TREATMENT OF INFECTIOUS DISEASES OR CANCER BY ACTIVATING NLRP3 INFLAMMASOME” (ALBERT-LUDWIGS-UNIVERSITÄT FREIBURG, priority 2020, published 2024).
# Values joined by “and” are separate entries in the source; they are usually repeats but may differ in a detail not shown here. Identical values can stand only once. Like-named read-outs stand apart in the source and are kept apart here.
# How the values were obtained:
# BMDCs = test: LDH release (lytic cell death, pyroptosis) from LPS-primed BMDCs; type: cell-based, mouse; conditions: for Average (% positive control): LDH release; for cytotoxicity at 20 µM / cytotoxicity at 40 µM / cytotoxicity at 80 µM / cytotoxicity at 50 µM: Mus musculus, BMDC; for cytotoxicity at 50 µM: LPS-primed BMDCs
# Protocol: (§1) This was tested in cell culture in several different in vitro assays classically used to investigate inflammasome activation. These include measuring inflammasome-dependent lytic cell death (pyroptosis) by detecting release of the cytosolic enzyme lactate dehydrogenase (LDH) using a commercial colorimetric assay and release of proinflammatory cytokines like IL-1β by enzyme-linked immunosorbent assay (ELISA), analyzing cleavage and activation of caspase-1 and IL-1β by immunoblotting and immunofluorescence imaging of ASC speck formation. Lytic cell death was determined via LDH release. Assay results for compounds are illustrated in the Tables below, wherein the concentration of the compounds tested had been 50 μM or as indicated in the table, and the concentration of the known activators has been tested with 5 μM of nigericin, 100 μM of each R837 and CL097. For classification of the activity of a given molecule, release of IL-1β was quantified as % of IL-1% of a respective control activator used for the experiment (highlighted in tables with bold letters). The compounds listes in Table 1 were classified into 4 groups depending on their ability to induce the NLRP3 inflammasome activation, assessed by % IL-1β release as compared to the positive control.
# (§2) Mouse bone marrow-derived dendritic cells (BMDCs) were isolated from femurs and tibias previously described (Gross, Olaf, 2012, “Measuring the inflammasome”, Methods in molecular biology, Clifton, N.J., 844, pp. 199-222.). In brief, tibias and femurs were carefully removed and put to sterile 70% ethanol for 1 minute. Using a 22-G needle attached to a 20 ml-syringe filled with sterile flushing medium, the bone marrow was pressed through the mesh of a […] cell strainer. The cells were spun down by centrifugation at 400×g, 4° C. for 5 minutes and red blood cells lysed by resuspension and incubation for 5 minutes at room temperature in RBC lysis buffer. 9 ml of flushing medium were added and cells were again spun down by centrifugation at 400×g, 4° C. for 5 minutes. Cells were then resuspended in BMDC medium (RPMI, 10% fetal bovine serum, 1% penicillin-streptomycin100 U/ml, 20 ng/ml recombinant murine GM-CSF), counted and plated at a density of 0.5×10^6 cells ml^−1 in 10 ml medium and incubated at 37° C., 5% CO2 in a humidified incubator. After 2 days, 10 ml of fresh medium were added to the cells and after 4 days, the medium was fully exchanged to 20 ml of fresh medium. The cells were allowed to differentiate for 6 to 8 days before usage.
# (§3) For canonical inflammasome activation BMDCs after 7-9 days of differentiation were harvested and counted with a Neubauer Chamber (Hecht Assistant) and the concentration was set to 1 Mio cells ml^−1. 100 μl cell suspension per well were seeded in 96-well plates. The cells were primed with 50 ng ml^−1 E. coli K12 ultra-pure LPS for 3 hours and subsequently treated with canonical inflammasome activators or experimental compounds for 3 hours if not indicated differently (incubation time FIG. 4D, 5, 7, 8, 11, 13-18: 3 h, FIG. 12: 4 h). Concentrations of the stimuli were as follows if not indicated differently: 5 μM nigericin, 100 μM imiquimod (also known as R837), 100 μM CL097, 100 μM R848, […] poly(dA:dT), 300 μg ml^−1 MSU. If an inhibitor was used before stimuli treatment, the inhibitor was added after 2.5 hours of priming and it was incubated for 30 minutes before inflammasome activation. Inhibitors were used as follows: 3 μM MCC950, 45 mM KCl, 30 μM ebselen (2-Phenyl-1,2-benzoselenazol-3-one), 5 μM cytochalasin D (see FIGS. 8, 11, 12 and 17).
# (§4) All inflammasome stimulations were performed in three technical replicates for each condition. […]
# NLRP3 inflammasome = target: T1, NLRP3 inflammasome (Mus musculus, UniProt Q8R4B8); test: IL-1β release from LPS-primed BMDCs (ELISA) as readout of NLRP3 inflammasome activation; type: cell-based
# T1 construct: endogenous in cells; host or cells: primary mouse bone marrow-derived dendritic cells (BMDCs), LPS-primed
# Protocol: as §1, §2, §3, §4
# [1] = compound 50 μM, positive control nigericin 5 μM
# [2] = compound 50 μM, read-out: Average LDH release (% of max.)
# [3] = single replicates, compound 50 μM, read-out: LDH release (% of max.)
# [4] = IL-1β release, compound 50 μM, positive control nigericin 5 μM
# [5] = compound 50 μM, LPS-primed BMDCs
# [6] = single replicates, compound 50 μM, LPS-primed BMDCs
# T1 sequence (Q8R4B8 whole entry): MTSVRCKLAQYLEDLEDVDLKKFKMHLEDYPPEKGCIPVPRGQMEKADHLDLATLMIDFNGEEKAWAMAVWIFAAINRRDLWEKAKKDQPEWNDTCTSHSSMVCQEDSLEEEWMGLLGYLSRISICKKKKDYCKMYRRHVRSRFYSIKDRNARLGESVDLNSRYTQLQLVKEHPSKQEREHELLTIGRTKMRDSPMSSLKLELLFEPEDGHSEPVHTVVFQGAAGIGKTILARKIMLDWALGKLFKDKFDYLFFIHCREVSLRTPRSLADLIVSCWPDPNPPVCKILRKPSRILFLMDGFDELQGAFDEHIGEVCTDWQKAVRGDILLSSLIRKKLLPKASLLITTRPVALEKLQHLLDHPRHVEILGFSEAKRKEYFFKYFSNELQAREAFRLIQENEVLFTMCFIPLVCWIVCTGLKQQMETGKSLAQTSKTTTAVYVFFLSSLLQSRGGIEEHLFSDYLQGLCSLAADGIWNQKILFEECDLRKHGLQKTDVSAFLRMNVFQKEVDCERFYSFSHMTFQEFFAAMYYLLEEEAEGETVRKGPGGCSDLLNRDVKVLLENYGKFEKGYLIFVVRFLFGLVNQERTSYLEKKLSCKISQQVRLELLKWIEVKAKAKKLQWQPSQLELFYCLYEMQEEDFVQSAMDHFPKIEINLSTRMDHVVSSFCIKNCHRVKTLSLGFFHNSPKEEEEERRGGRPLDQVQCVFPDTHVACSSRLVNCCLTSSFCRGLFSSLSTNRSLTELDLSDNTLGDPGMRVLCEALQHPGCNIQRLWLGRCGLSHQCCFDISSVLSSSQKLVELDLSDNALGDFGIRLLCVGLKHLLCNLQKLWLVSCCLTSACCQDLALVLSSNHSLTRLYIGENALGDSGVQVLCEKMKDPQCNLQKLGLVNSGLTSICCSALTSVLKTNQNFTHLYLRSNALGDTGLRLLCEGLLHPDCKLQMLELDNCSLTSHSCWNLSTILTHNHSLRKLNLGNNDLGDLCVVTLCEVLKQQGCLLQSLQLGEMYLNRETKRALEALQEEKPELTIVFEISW
Average (% positive control) (NLRP3 inflammasome; [4]),Average IL-1β (NLRP3 inflammasome; [5]) [ng/mL],SMILES,Average (% positive control) (BMDCs; [1]),cytotoxicity at 50 µM (BMDCs; [2]) [%],cytotoxicity at 50 µM (BMDCs; [3]) [%],IL-1β (NLRP3 inflammasome; [6]),further results
,,"N#Cc1ccc(NC(=O)Nc2ccc3ncccc3c2)cc1 [JB011, 1-(4-cyanophenyl)-3-(quinolin-6-yl)urea]",,,,,"Average (% positive control) (BMDCs; 20 μM, positive control EN22 20 μM): 21.883 % positive control; Average (% positive control) (BMDCs; 40 μM, positive control EN22 20 μM): 24.799 % positive control; Average (% positive control) (BMDCs; 80 μM, positive control EN22 20 μM): 31.296 % positive control; cytotoxicity at 20 µM (BMDCs; 20 μM, individual replicate values, read-out: LDH release (% of max.)): 11.5%; cytotoxicity at 20 µM (BMDCs; 20 μM, read-out: Average LDH release (% of max.)): 11.7%; cytotoxicity at 40 µM (BMDCs; 40 μM, individual replicate values, read-out: LDH release (% of max.)): 12.6%; cytotoxicity at 40 µM (BMDCs; 40 μM, read-out: Average LDH release (% of max.)): 13.2%; cytotoxicity at 80 µM (BMDCs; 80 μM, individual replicate values, read-out: LDH release (% of max.)): 16.4%; cytotoxicity at 80 µM (BMDCs; 80 μM, read-out: Average LDH release (% of max.)): 16.7%; Average IL-1β (NLRP3 inflammasome; 20 μM): 0.576 ng/mL; IL-1β (NLRP3 inflammasome; 20 μM, individual replicate values): 0.562 ng/mL and 0.612 ng/mL and 0.553 ng/mL; Average IL-1β (NLRP3 inflammasome; 40 μM): 0.604 ng/mL; IL-1β (NLRP3 inflammasome; 40 μM, individual replicate values): 0.538 ng/mL and 0.564 ng/mL and 0.711 ng/mL; Average IL-1β (NLRP3 inflammasome; 80 μM): 0.752 ng/mL; IL-1β (NLRP3 inflammasome; 80 μM, individual replicate values): 0.912 ng/mL and 0.737 ng/mL and 0.607 ng/mL; Average (% positive control) (NLRP3 inflammasome; IL-1β, 20 μM, positive control EN22): 29.413 % positive control; Average (% positive control) (NLRP3 inflammasome; IL-1β, 40 μM, positive control EN22): 30.877 % positive control; Average (% positive control) (NLRP3 inflammasome; IL-1β, 80 μM, positive control EN22): 38.413 % positive control"
2.590,0.186,"N#CCOc1ccc(NC(=O)Nc2ccccc2)cc1 [L01.002, 1-[4-(cyanomethoxy)-phenyl]-3-phenylurea]",13.662,9.99,8.07,0.144 ng/mL and 0.249 ng/mL and 0.164 ng/mL,
2.301,0.165,"CC(C)=CC(=O)Nc1cccc(NC(=O)Nc2ccccc2)c1 [L01.003, 3-methyl-N-{3-[(phen-ylcarbamoyl)amino]-phenyl}but-2-enamide]",10.676,7.81,6.28,0.167 ng/mL and 0.153 ng/mL and 0.175 ng/mL,
19.737,1.415,"O=C(Nc1ccccc1)Nc1ccc(N2CCCC2)cc1 [L01.004, 3-phenyl-1-[4-(pyrrol-idin-1-yl)phenyl]urea]",23.074,16.9,15.2,1.192 ng/mL and 1.485 ng/mL and 1.567 ng/mL,
0.980,0.070,"CC(C)C(NC(=O)Nc1cccc(C(F)(F)F)c1)c1nc(-c2cccnc2)no1 (stereo not drawn) [L01.005, 3-{2-methyl-1-[3-(pyridin-3-yl)-1,2,4-oxadiazol-5-yl]propyl}-1-[3-(trifluoromethyl)-phenyl]urea]",20.238,14.8,9.31,0.053 ng/mL and 0.074 ng/mL and 0.084 ng/mL,
16.422,1.177,"COc1ccc(F)cc1NC(=O)NC(c1nc(-c2cccnc2)no1)C(C)C (stereo not drawn) [L01.007, 1-(5-fluoro-2-methoxy-phenyl)-3-{2-methyl-1-[3-(pyridin-3-yl)-1,2,4-oxadiazol-5-yl]propyl}-urea]",27.756,20.3,17.8,0.859 ng/mL and 1.572 ng/mL and 1.101 ng/mL,
4.638,0.332,"O=C(Nc1ccccc1)Nc1ccc(C(=O)N2CCC2)cc1 [L01.008, 1-[4-(azetidine-1-carbon-yl)phenyl]-3-phenylurea]",13.046,9.54,11,0.361 ng/mL and 0.324 ng/mL and 0.313 ng/mL,
0.822,0.059,"CC(C)CC(NC(=O)Nc1cccc(N2CCNC2=O)c1)c1nc(-c2nnc[nH]2)no1 (stereo not drawn) [L01.010, 3-{3-methyl-1-[3-(4H-1,2,4-triazol-3-yl)-1,2,4-oxadiazol-5-yl]butyl}-1-[3-(2-oxoimidazolidin-1-yl)phenyl]urea]",7.822,5.72,5.64,0.065 ng/mL and 0.059 ng/mL and 0.053 ng/mL,
1.677,0.120,"CCOc1ccc(NC(=O)NCc2nc(-c3cccc(OC)c3)no2)cc1OCC [L01.013, 1-(3,4-diethoxyphenyl)-3-{[3-(3-methoxyphen-yl)-1,2,4-oxadiazol-5-yl]methyl}urea]",10.303,7.54,8.75,0.118 ng/mL and 0.126 ng/mL and 0.117 ng/mL,
10.857,0.778,"O=C(Nc1ccccc1)Nc1ccc(NC(=O)C(F)F)cc1 [L01.016, 2,2-difluoro-N-{4-[(phenylcarbamoyl)-amino]phenyl}acet-amide]",17.216,12.6,11.6,0.755 ng/mL and 0.723 ng/mL and 0.857 ng/mL,
3.256,0.233,"O=C(Nc1ccccc1)Nc1cccc(Br)c1 [L01.020, 3-(3-bromophenyl)-1-phenylurea]",14.712,10.8,11.6,0.236 ng/mL and 0.231 ng/mL and 0.233 ng/mL,
1.021,0.073,"CC(C)C(=O)Nc1cccc(NC(=O)Nc2ccccc2)c1 [L01.023, 2-methyl-N-{3-[(phenyl-carbamoyl)amino]phen-yl}propanamide]",7.611,5.57,5.1,0.065 ng/mL and 0.075 ng/mL and 0.080 ng/mL,
5.130,0.368,"Cc1cc(NC(=O)Nc2ccccc2)ccc1N1CCCC1 [L01.025, 3-[3-methyl-4-(pyrrol-idin-1-yl)phenyl]-1-phenylurea]",19.631,14.4,15,0.333 ng/mL and 0.280 ng/mL and 0.490 ng/mL,
6.911,0.495,"COc1ccc(NC(=O)Nc2ccccc2)cc1Cl [L01.026, 3-(3-chloro-4-methoxy-phenyl)-1-phenylurea]",14.776,10.8,9.23,0.452 ng/mL and 0.473 ng/mL and 0.562 ng/mL,
